The target of this assay is TENT4B (PAPD5) (Homo sapiens, UniProt Q8NDF8). The assay is described as follows: ATP depletion polyadenylation assay. Type of assay: biochemical.
Sequence of TENT4B (PAPD5) (Q8NDF8 whole entry): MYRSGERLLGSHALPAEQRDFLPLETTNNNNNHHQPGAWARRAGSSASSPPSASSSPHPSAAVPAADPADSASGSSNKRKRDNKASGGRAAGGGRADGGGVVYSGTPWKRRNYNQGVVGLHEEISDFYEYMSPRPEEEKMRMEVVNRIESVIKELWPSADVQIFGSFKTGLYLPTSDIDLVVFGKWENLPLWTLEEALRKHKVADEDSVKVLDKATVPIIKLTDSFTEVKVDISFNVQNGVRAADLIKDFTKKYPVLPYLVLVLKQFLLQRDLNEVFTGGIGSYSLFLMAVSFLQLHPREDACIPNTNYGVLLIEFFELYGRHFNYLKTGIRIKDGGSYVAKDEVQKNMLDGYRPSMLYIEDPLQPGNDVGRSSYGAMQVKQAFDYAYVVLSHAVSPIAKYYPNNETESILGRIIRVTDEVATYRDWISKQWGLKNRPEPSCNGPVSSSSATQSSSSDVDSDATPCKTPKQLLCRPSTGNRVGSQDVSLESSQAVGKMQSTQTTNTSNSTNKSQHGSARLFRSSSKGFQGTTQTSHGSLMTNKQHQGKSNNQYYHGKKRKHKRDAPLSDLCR

The IC50 is the concentration that gives 50% inhibition. Low values mean inhibition by little substance, high ones a need for much substance. In the case of `COCCCOc1cc2c(cc1OC)-c1cc(=O)c(C(=O)O)cn1[C@H](C(C)C)C2` [RG7834], half-maximal inhibition (IC50) required 1.3 nM.

`COCCCOc1cc2c(cc1OC)-c1cc(=O)c(C(=O)O)cn1[C@@H](C(C)C)C2` [RO0321] returned an IC50 of 76 nM.
